Experimental data from BindingDB's records for doi:10.7270/Q2Q52N1X (Vanderbilt Screening Center for GPCRs, Ion Channels and …, 2009).

Biological target: T1, Solute carrier family 12 member 5 (Homo sapiens, UniProt Q9H2X9)
T1 sequence (Q9H2X9 whole entry): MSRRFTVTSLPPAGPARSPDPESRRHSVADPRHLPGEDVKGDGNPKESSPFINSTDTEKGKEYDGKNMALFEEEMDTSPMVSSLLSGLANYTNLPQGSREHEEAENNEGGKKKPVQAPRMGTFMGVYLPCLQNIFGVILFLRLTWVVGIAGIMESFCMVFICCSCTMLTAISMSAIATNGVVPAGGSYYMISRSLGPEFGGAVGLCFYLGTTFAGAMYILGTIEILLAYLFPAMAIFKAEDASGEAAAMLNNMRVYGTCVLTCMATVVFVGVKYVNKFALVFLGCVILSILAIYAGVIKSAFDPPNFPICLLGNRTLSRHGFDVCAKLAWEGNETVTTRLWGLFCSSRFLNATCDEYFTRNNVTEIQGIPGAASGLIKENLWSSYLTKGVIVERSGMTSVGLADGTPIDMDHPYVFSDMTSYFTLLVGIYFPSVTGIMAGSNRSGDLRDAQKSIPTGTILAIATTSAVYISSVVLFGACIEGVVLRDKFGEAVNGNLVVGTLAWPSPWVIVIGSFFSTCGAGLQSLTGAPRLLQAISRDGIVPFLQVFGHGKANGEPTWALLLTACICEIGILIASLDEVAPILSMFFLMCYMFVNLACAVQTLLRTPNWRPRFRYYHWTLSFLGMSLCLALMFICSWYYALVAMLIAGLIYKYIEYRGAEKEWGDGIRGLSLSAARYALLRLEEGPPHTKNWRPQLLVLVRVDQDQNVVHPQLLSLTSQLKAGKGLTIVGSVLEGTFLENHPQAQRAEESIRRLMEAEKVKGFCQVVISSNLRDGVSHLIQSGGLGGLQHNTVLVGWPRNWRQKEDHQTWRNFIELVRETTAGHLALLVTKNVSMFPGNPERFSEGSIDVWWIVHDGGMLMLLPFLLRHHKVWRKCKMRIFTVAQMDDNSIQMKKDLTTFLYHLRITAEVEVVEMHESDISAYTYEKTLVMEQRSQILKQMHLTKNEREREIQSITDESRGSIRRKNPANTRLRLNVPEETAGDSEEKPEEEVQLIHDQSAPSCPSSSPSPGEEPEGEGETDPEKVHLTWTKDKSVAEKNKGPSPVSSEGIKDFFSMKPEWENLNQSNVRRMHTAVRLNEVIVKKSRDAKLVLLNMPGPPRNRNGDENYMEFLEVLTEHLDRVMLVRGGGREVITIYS
Experiment: concentration-response of KCC2 transport modulators – cell-based, HEK293 KCC2, FluoZin-2 fluorescence, dose response (AID 1736)

[1] = inactive by the depositor's call

SMILES | EC50 | EC50 [1]
O=C(c1ccc(S(=O)(=O)c2cccc(Cl)c2)c([N+](=O)[O-])c1)N1CCN(c2ccccn2)CC1 [1-{4-[(3-chlorophenyl)sulfonyl]-3-nitrobenzoyl}-4-pyridin-2-ylpiperazine] | 3.61 µM | –
CCn1nnnc1SCC(=O)Nc1nc(-c2cccs2)cs1 [2-(1-Ethyl-1H-tetrazol-5-ylsulfanyl)-N-(4-thiophen-2-yl-thiazol-2-yl)-acetamide] | 1.97 µM | –
CCc1ccc(OCCNC(=O)c2ccccc2SCc2ccc(F)cc2)cc1 [MLS000577152] | 0.304 µM | –
Cc1ccc(Nc2nnc(SCC(=O)c3ccc(Br)s3)s2)c(C)c1 [1-(5-bromanylthiophen-2-yl)-2-[[5-[(2,4-dimethylphenyl)amino]-1,3,4-thiadiazol-2-yl]sulfanyl]ethanone] | 1.02 µM | –
COC(=O)[C@@H](NC(=O)O[C@@H]1C(=O)c2ccc(OC)cc2O[C@H]1c1cccc(C(F)(F)F)c1)C(C)C [(2S)-2-[[(2S,3S)-4-keto-7-methoxy-2-[3-(trifluoromethyl)phenyl]chroman-3-yl]oxycarbonylamino]-3-methyl-butyric acid methyl ester] | 4.12 µM | –
O=C(COC(=O)c1cc([N+](=O)[O-])ccc1NCCO)c1ccccc1 [2-(2-hydroxyethylamino)-5-nitro-benzoic acid phenacyl ester] | 41.9 µM | –
COc1ccc(OC)c(-n2nnnc2SCC(=O)NCCc2ccccc2)c1 [2-[1-(2,5-Dimethoxy-phenyl)-1H-tetrazol-5-ylsulfanyl]-N-phenethyl-acetamide] | 242 µM | –
O=C(CSc1nnc(C2CC2)n1Cc1ccccc1)c1cc2ccccc2o1 [1-(1-benzofuran-2-yl)-2-[(4-benzyl-5-cyclopropyl-1,2,4-triazol-3-yl)sulfanyl]ethanone] | 5.3 µM | –
Cc1cc(C)c(C#N)c(N2CCN(Cc3ccccc3)CC2)n1 [2-(4-benzyl-1-piperazinyl)-4,6-dimethylnicotinonitrile] | 19.4 µM | –
O=C(C1CCN(c2nnc(-n3cccc3)s2)CC1)N1CCc2ccccc2C1 [3,4-dihydro-1H-isoquinolin-2-yl-[1-(5-pyrrol-1-yl-1,3,4-thiadiazol-2-yl)-4-piperidyl]methanone] | 10.6 µM | –
Cc1[nH]c2ccccc2c1SCC(=O)N1CCN(c2ccccc2)CC1 [2-[(2-methyl-1H-indol-3-yl)thio]-1-(4-phenyl-1-piperazinyl)ethanone] | 86.4 µM | –
COc1ccc(NC(=S)NC(N)=Nc2nc(C)c3ccccc3n2)cc1 [(1E)-1-[amino-[(4-methyl-2-quinazolinyl)amino]methylidene]-3-(4-methoxyphenyl)thiourea] | 70.5 µM | –
O=C(CN1C(=O)NC(Cc2ccccc2)C1=O)NC(=O)NC1CCCCC1 (stereo not given) [2-(4-benzyl-2,5-diketo-imidazolidin-1-yl)-N-(cyclohexylcarbamoyl)acetamide] | – | 69.9 µM
O=C(Nc1ccc(Cc2ccncc2)cc1)c1ccc(N2CCOCC2)c([N+](=O)[O-])c1 [4-(4-morpholinyl)-3-nitro-N-[4-(4-pyridinylmethyl)phenyl]benzamide] | – | 101 µM
O=C(OC1CCc2ccccc2C1=O)c1ccccc1O (stereo not given) [MLS000051417] | 0.53 µM | –
CS/C(=N\Cc1ccc(F)cc1)NS(=O)(=O)c1cccs1 [3-(4-fluorobenzyl)-2-methyl-1-(2-thienylsulfonyl)isothiourea] | 0.89 µM | –
O=C(NC(=S)NNC(=O)c1cnccn1)c1ccc(Cl)cc1 [4-Chloro-N-[N'-(pyrazine-2-carbonyl)-hydrazinocarbothioyl]-benzamide] | 13 µM | –
Cc1ccc(S(=O)(=O)N2CCC(=O)N(C(COCc3ccccc3)Cc3ccccc3)CC2)cc1 (stereo not given) [1-(4-methylphenyl)sulfonyl-4-(1-phenyl-3-phenylmethoxy-propan-2-yl)-1,4-diazepan-5-one] | 1.17 µM | –
CC(C)(C)NC(=O)C(c1ccncc1)N(Cc1ccco1)C(=O)c1ccc(-c2ccccc2)[nH]1 (stereo not given) [N-[2-(tert-butylamino)-2-oxo-1-pyridin-4-ylethyl]-N-(furan-2-ylmethyl)-5-phenyl-1H-pyrrole-2-carboxamide] | 26.6 µM | –
N#Cc1nc(-c2ccco2)oc1N1CCN(Cc2ccccc2)CC1 [2-(2-furanyl)-5-[4-(phenylmethyl)-1-piperazinyl]-4-oxazolecarbonitrile] | 4.59 µM | –

SMILES | EC50 | EC50 [1]
O=C(NCCCCc1ccccc1)C1CC(c2ccccc2[N+](=O)[O-])=NO1 (stereo not given) [3-(2-nitrophenyl)-N-(4-phenylbutyl)-2-isoxazoline-5-carboxamide] | 8.63 µM | –
NC(=S)NN=C1C(=O)N(Cc2ccc(F)cc2)c2ccccc21 [1-[(Z)-[1-[(4-fluorophenyl)methyl]-2-oxidanylidene-indol-3-ylidene]amino]thiourea] | 38 µM | –
O=C(NCCc1cn2ccccc2n1)c1cc(COc2c(F)cccc2F)on1 [5-[(2,6-difluorophenoxy)methyl]-N-(2-imidazo[1,2-a]pyridin-2-ylethyl)-1,2-oxazole-3-carboxamide] | 7.6 µM | –
Cc1ccc(C)c(C(=O)NC(C)CCc2ccccc2)c1 (stereo not given) [2,5-dimethyl-N-(1-methyl-3-phenyl-propyl)benzamide] | 3.82 µM | –
O=C(O)c1cc(-c2ccc(F)cc2F)ccc1O | 10.6 µM | –
O=S(=O)(Nc1nc2ccccc2nc1N1CCN(c2ccccn2)CC1)c1ccc(Cl)cc1 [4-chloranyl-N-[3-(4-pyridin-2-ylpiperazin-1-yl)quinoxalin-2-yl]benzenesulfonamide] | 9.37 µM | –
CSCCC(=O)N1CCCC(CNC(=O)c2ccc(-c3ccccc3)cc2)C1 (stereo not given) [MLS000733867] | 5.16 µM | –
O=C(C1CCN(c2nc3ccc(Br)cc3s2)CC1)N1CCC2(CC1)OCCO2 [8-{[1-(6-bromo-1,3-benzothiazol-2-yl)piperidin-4-yl]carbonyl}-1,4-dioxa-8-azaspiro[4.5]decane] | 7.02 µM | –
Cc1[nH]c2ccccc2c1Cc1n[nH]c(=S)n1C | 25.1 µM | –
S=C(NN=Cc1cccc2ccccc12)Nc1cccc(Cl)c1 [1-(3-chlorophenyl)-3-(1-naphthalenylmethylideneamino)thiourea] | 12.7 µM | –
O=C(NCCSCc1ccccc1)c1cc(S(=O)(=O)N2CCOCC2)ccc1F [2-fluoranyl-5-morpholin-4-ylsulfonyl-N-[2-(phenylmethylsulfanyl)ethyl]benzamide] | – | 24.7 µM
CS(=O)(=O)N(CC(=O)N1CCN(c2ccccc2)CC1)c1cccc(Br)c1 [MLS000110474] | 2.43 µM | –
COCCNS(=O)(=O)c1ccc(-c2ccc(Cl)cc2)cc1 [4'-chloro-N-(2-methoxyethyl)-4-biphenylsulfonamide] | 7.84 µM | –
CC(C)NC(=S)NNC1=c2cc(C(C)C)ccc2=NC1=O [SMR000242097] | 145 µM | –
O=C(NCc1nc(-c2ccccc2)cs1)c1ccccc1 [MLS000661971] | 7.64 µM | –
Cc1nc2cc(C(F)(F)F)ccc2n1C1CCN(Cc2nnnn2Cc2ccc3c(c2)OCO3)CC1 [1-[1-(1-Benzo[1,3]dioxol-5-ylmethyl-1H-tetrazol-5-ylmethyl)-piperidin-4-yl]-2-methyl-5-trifluoromethyl-1H-benzoimidazole] | 16.4 µM | –
CC(NNC(=O)c1ccc(Br)cc1)=C1C(=O)c2ccccc2C1=O [SMR000116009] | 1.56 µM | –
CCCC1=NN2C(=N)/C(=C\c3cc(C)n(-c4cc(C)cc(C)c4)c3C)C(=O)N=C2S1 [MLS000588586] | 7.66 µM | –
Cc1nn(-c2ccc(F)cc2)c(C)c1NS(=O)(=O)c1ccc2ccccc2c1 [MLS000565745] | 1.99 µM | –
Cc1ccc2c(c1)nnn2C1CCN(S(=O)(=O)c2cccc(S(=O)(=O)N(C)C)c2)CC1 [MLS000033642] | 4.09 µM | –
